This is an account of results in US9896421B2, “Compound having skin-whitening, anti-oxidizing and PPAR activities and medical use thereof” (Pusan National University Industry-University Cooperation …, priority 2011, dated 2018).

Series [1] has as its system Mushroom-derived tyrosinase. Briefly: Tyrosinase inhibitory effect. It counts as biochemical. As to conditions: 1 mM L-tyrosin, pH 6.5, 25° C., 30 minutes, OD492; compared with kojic acid (positive control); FIGS. 4 to 6. Here is the method:
Mushroom-derived tyrosinase was sued as an enzyme source in the present experiment. Tyrosinase activities were assayed according to a slightly-modified conventionally known method (Life Sci., 1999, 65, 241-246). In detail, 20 μl of a mushroom-derived tyrosinase (1000 units) aqueous solution was added to 96-well microplate (Nunc, Denmark) to prepare 200 μl of the total volume of assay mixture containing 1 mM L-tyrosin solution and 50 mM phosphate buffer solution (pH 6.5). The assay mixture was cultured at a temperature of 25° C. for 30 minutes. After the culturing, an amount of the produced DOPA chrome in the reaction mixture was measured by using a microplate reader (Hewlett Packard) at 492 nm (OD492).

Series [2] has as its system ROS generated by vascular endothelial cells (YPEN-1). Briefly: In vitro ROS scavenging activity assay (DCFDA) in YPEN-1 vascular endothelial cells. In kind it is cell-based, rat. Particulars: YPEN-1 cells pre-treated with 50 μM SIN-1 for 1 hour; DCFDA fluorescence; compared with trolox (positive control); FIGS. 1 to 3. On the procedure:
YPEN-1 cells (rat prostatic endothelial cell line) was obtained from American type culture collection (ATCC, Manassas, Va., USA), and the cells were cultured by using a dulbecco's modified eagle medium (DMEM, Nissui, Tokyo, Japan) containing 2 mM L-glutamine, […], 2.5 mg/L amphotericin B, and 5% inactivated fetal bovine serum (FBS). Also, the cells were maintained at a temperature of 37° C. in a humid atmosphere-like condition containing 5% CO2 and 95% air. […] The cells were sub-cultured in 100 mm plastic flask (Corning Co., New York, USA) every two days to maintain the cell line.
Since the oil-soluble DCFDA was deacetylated into non-fluorescent DCFH due to esterase or oxidative hydrolysis and the DCFH was oxidized due to activity oxgyen to produce highly-fluorescent 2′,7′-dichlorofluorescein (DCF), the present measurement was performed at an excitation wavelength of 485 nm and an emission wavelength of 530 nm by using a fluorophotometer (GENios, TECAN). Vascular endothelial cells that were pre-treated with 50 μM 3-morpholinosydnonimine hydrochloride (SIN-1) for 1 hour were used as a reactive oxygen generation source.

Another series relates to male Balb/c mouse. In words: Toxicity test, single oral administration. As to conditions: single oral dose 0.5, 1 and 2 g/kg in 0.5% methylcellulose, observed 7 days. In kind it is in vivo. Here is the method:
A suspension of each of Compound 3, Compound 15, Compound 50, Compound 85, Compound 93, and Compound 115 in a 0.5% methylcellulose solution was orally administered once to a male Balb/c mouse in dosages of 0.5 g/kg, 1 g/kg, and 2 g/kg, and then the survival rate and body weight of the mouse was recorded for 7 days.
After the administration, whether the mouse died, clinical symptoms occurred, and body weight changed were identified and hematologic examination and blood biochemical examination were performed, and autopsy was performed to identify with naked eyes states of abdominal cavity organs and thoracic cavity organs.

Molecules are shown by their SMILES.

Regarding `O=C1NC(=O)/C(=C/c2ccc(O)cc2)S1` [Compound 1, (Z)-5-(4-hydroxybenzylidene)thiazolidine-2,4-dione], in series [1], the tyrosinase inhibitory activities result is given as “better tyrosinase inhibitory activities than a kojic acid”.

The term melting point denotes the temperature of the solid-liquid transition. `O=C1NC(=O)/C(=C/c2ccc(O)c(O)c2)S1` [Compound 2, (Z)-5-(3,4-dihydroxybenzylidene)thiazolidine-2,4-dione]: the melting point is > 300 °C. For the same compound, the “scavenging effects on ROS generated by vascular endothelial cells” value (“scavenging effects on ROS generated” below) in series [2] is given as “as high scavenging effects on ROS generated by vascular endothelial cells as trolox”.

Consider `O=C1NC(=O)/C(=C/c2ccc(O)cc2O)S1` [Compound 3, (Z)-5-(2,4-dihydroxybenzylidene)thiazolidine-2,4-dione], for which the tyrosinase inhibitory activities result in series [1] is “better tyrosinase inhibitory activities than a kojic acid”. Further, in the series on male Balb/c mouse, the “death and clinical symptoms” value is “neither had distinctive clinical symptoms nor died”; the “toxicity change (body weight change, hematologic examination, blood biochemical examination, autopsy)” value is “toxicity change was not identified”.

For `COc1ccc(/C=C2\SC(=O)NC2=O)cc1O` [Compound 6, (Z)-5-(3-hydroxy-4-methoxybenzylidene)thiazolidine-2,4-dione], the melting point was in the range of 254 to 257.6 °C. Besides, the tyrosinase inhibitory activities result in series [1] is “better tyrosinase inhibitory activities than a kojic acid”.

As for `O=C1NC(=O)C(=Cc2ccc(O)c(O)c2)C(=O)N1` [Compound 15, 5-(3,4-dihydroxybenzylidene)pyrimidine-2,4,6(1H,3H,5H)-trione], the tyrosinase inhibitory activities result in series [1] is reported as “better tyrosinase inhibitory activities than a kojic acid”. Besides, in the series on male Balb/c mouse, the “death and clinical symptoms” value is recorded as “neither had distinctive clinical symptoms nor died”; the “toxicity change (body weight change, hematologic examination, blood biochemical examination, autopsy)” value is recorded as “toxicity change was not identified”. For the same compound, the “scavenging effects on ROS generated” value in series [2] is “as high scavenging effects on ROS generated by vascular endothelial cells as trolox”.

On to `O=C1NC(=O)C(=Cc2ccc(O)cc2O)C(=O)N1` [Compound 16, 5-(2,4-dihyroxybenzylidene)pyrimidine-2,4,6(1H,3H,5H)-trione], for which the tyrosinase inhibitory activities entry in series [1] is recorded as “better tyrosinase inhibitory activities than a kojic acid”.

In the case of `O=C1NC(=O)/C(=C/c2ccc(O)c(O)c2)N1` [Compound 26, (Z)-5-(3,4-dihydroxybenzylidene)imidazolidine-2,4-dione], the melting point was > 300 °C. Also, in series [2], the “scavenging effects on ROS generated” value is listed as “as high scavenging effects on ROS generated by vascular endothelial cells as trolox”.

Turning to `COc1ccc(/C=C2\NC(=O)NC2=O)cc1O` [Compound 29, (Z)-5-(3-hydroxy-4-methoxybenzylidene)imidazolidine-2,4-dione], the melting point is 250.7 to 253.4 °C. For the same compound, in series [1], the tyrosinase inhibitory activities result was “better tyrosinase inhibitory activities than a kojic acid”.

As for `O=C1C/C(=C\c2ccc(O)cc2)C(=O)N1` [Compound 36, (E)-3-(4-hydroxybenzylidene)pyrrolidine-2,5-dione], the melting point was > 300 °C. The tyrosinase inhibitory activities result in series [1] is listed as “better tyrosinase inhibitory activities than a kojic acid”.

Regarding `O=C1C/C(=C\c2ccc(O)c(O)c2)C(=O)N1` [Compound 37, (E)-3-(3,4-dihydroxybenzylidene)pyrrolidine-2,5-dione], the melting point lay in the range of 290.8 to 291.9 °C. Moreover, in series [2], the “scavenging effects on ROS generated” value is recorded as “as high scavenging effects on ROS generated by vascular endothelial cells as trolox”.

In the case of `O=C1C/C(=C\c2ccc(O)cc2O)C(=O)N1` [Compound 38, (E)-3-(2,4-dihydroxybenzylidene)pyrrolidine-2,5-dione], the melting point was > 300 °C. Besides, the tyrosinase inhibitory activities result in series [1] was “better tyrosinase inhibitory activities than a kojic acid”.

In turn, `COc1ccc(/C=C2\CC(=O)NC2=O)cc1O` [Compound 41, (E)-3-(3-hydroxy-4-methoxybenzylidene)pyrrolidine-2,5-dione] yielded a melting point of 268.7 to 270.3 °C. The tyrosinase inhibitory activities entry in series [1] is recorded as “better tyrosinase inhibitory activities than a kojic acid”.

On to `COc1ccc(/C=C2\SC(=S)NC2=O)cc1O` [Compound 66, (Z)-5-(3-hydroxy-4-methoxybenzylidene)-2-thioxothiazolidin-4-one], for which the melting point lay within 210.2 to 212.5 °C. In addition, the tyrosinase inhibitory activities result in series [1] is listed as “better tyrosinase inhibitory activities than a kojic acid”.

In the case of `[H]/N=C1/NC(=O)C(=Cc2ccc(O)c(O)c2)N1C` [Compound 75, (Z)-5-(3,4-dihydroxybenzylidene)-2-imino-1-methylimidazolidin-4-one], the melting point lay within 293 to 295.3 °C. In series [2], the “scavenging effects on ROS generated” value is “as high scavenging effects on ROS generated by vascular endothelial cells as trolox”.

Consider `COc1cc(/C=C2\N=C(C)OC2=O)cc(OC)c1OC(C)=O` [Compound 95, (Z)-2,6-dimethoxy-4-((2-methyl-5-oxooxazol-4(5H)-ylidene)methyl)phenyl acetate], for which the “scavenging effects on ROS generated” value in series [2] is reported as “as high scavenging effects on ROS generated by vascular endothelial cells as trolox”.

In the case of `O=C1NC(=S)N/C1=C\c1ccc(O)c(O)c1` [Compound 99, (Z)-5-(3,4-dihydroxybenzylidene)-2-thioxoimidazolidin-4-one], the melting point is > 300 °C. For the same compound, the “scavenging effects on ROS generated” value in series [2] was “as high scavenging effects on ROS generated by vascular endothelial cells as trolox”.

Consider `O=C1NC(=S)N/C1=C\c1ccc(O)cc1O` [Compound 100, (Z)-5-(2,4-dihydroxybenzylidene)-2-thioxoimidazolidin-4-one], for which the melting point was > 300 °C. Besides, the “scavenging effects on ROS generated” value in series [2] is recorded as “as high scavenging effects on ROS generated by vascular endothelial cells as trolox”.

For the compound `COc1cc(/C=C2\NC(=S)NC2=O)ccc1O` [Compound 101, (Z)-5-(4-hydroxy-3-methoxybenzylidene)-2-thioxoimidazolidin-4-one], in series [2], the “scavenging effects on ROS generated” value was “as high scavenging effects on ROS generated by vascular endothelial cells as trolox”.

The compound `CCOc1cc(/C=C2\NC(=S)NC2=O)ccc1O` [Compound 102, (Z)-5-(3-ethoxy-4-hydroxybenzylidene)-2-thioxoimidazolidin-4-one] returned a melting point of 175.4 to 177.2 °C. In series [2], the “scavenging effects on ROS generated” value is “as high scavenging effects on ROS generated by vascular endothelial cells as trolox”.

Consider `COc1ccc(/C=C2\NC(=S)NC2=O)cc1O` [Compound 103, (Z)-5-(3-hydroxy-4-methoxybenzylidene)-2-thioxoimidazolidin-4-one], for which the melting point was 279.6 to 282.2 °C. The tyrosinase inhibitory activities entry in series [1] was “better tyrosinase inhibitory activities than a kojic acid”.

In the case of `O=C1NC(=S)N/C1=C\c1cc(O)cc(O)c1` [Compound 106, (Z)-5-(3,5-dihydroxybenzylidene)-2-thioxoimidazolidin-4-one], the melting point is > 300 °C. In series [2], the “scavenging effects on ROS generated” value is recorded as “as high scavenging effects on ROS generated by vascular endothelial cells as trolox”.

Consider `COc1cc(/C=C2\NC(=S)NC2=O)cc(OC)c1O` [Compound 110, (Z)-5-(4-hydroxy-3,5-dimethoxybenzylidene)-2-thioxoimidazolidin-4-one], for which the melting point was 240.1 to 242.6 °C. The “scavenging effects on ROS generated” value in series [2] was “as high scavenging effects on ROS generated by vascular endothelial cells as trolox”.

As for `[H]/N=C1/NC(=O)C(=Cc2ccc(OC)c(O)c2)S1` [Compound 115, (Z)-5-(3-hydroxy-4-methoxybenzylidene)-2-iminothiazolidin-4-one], the tyrosinase inhibitory activities result in series [1] is listed as “better tyrosinase inhibitory activities than a kojic acid”.

As for `O=C1NC(=O)C(=Cc2ccc(OCc3ccccc3)cc2)C(=O)N1` [Compound 123, 5-(4-(benzyloxy)benzylidene)pyrimidine-2,4,6(1H,3H,5H)-trione], the tyrosinase inhibitory activities result in series [1] is reported as “better tyrosinase inhibitory activities than a kojic acid”.
